According to PMC6522510 (Nature Communications, 2019):
Read-outs that look alike come from different tables or passages of the source.

Experiments:
Design in all cases: species or system AML cell lines (8); Primary HTS, single concentration about 10 uM, Cell Titer Glo viability; log10 luminescence, per cent inhibition relative to cycloheximide control
Details in all cases: 72 h, relative to cycloheximide control, log10 luminescence, inhibitor
[1] = tested on: MV4-11
[2] = tested on: MOLM-13
[3] = tested on: CMS
[4] = tested on: M07e
[5] = tested on: U937
[6] = tested on: ML-2
[7] = tested on: CHRF288-11
[8] = tested on: CMK

Compound | MV4-11 %inh [1] | MOLM-13 %inh [2] | CMS %inh [3] | M07e %inh [4] | U937 %inh [5] | ML-2 %inh [6] | CHRF288-11 %inh [7] | CMK %inh [8] | MV4-11 %inh ([1]; MV4-11 %inh, 10 µM) | MOLM-13 %inh ([2]; MOLM-13 %inh, 10 µM) | CMS %inh ([3]; CMS %inh, 10 µM) | M07e %inh ([4]; M07e %inh, 10 µM) | U937 %inh ([5]; U937 %inh, 10 µM) | ML-2 %inh ([6]; ML-2 %inh, 10 µM) | CHRF288-11 %inh ([7]; CHRF288-11 %inh, 10 µM) | CMK %inh ([8]; CMK %inh, 10 µM)
O=C1[C@H](CC[C@H](O)c2ccc(F)cc2)[C@@H](c2ccc(O)cc2)N1c1ccc(F)cc1 [SJ000286078-3, EZETIMIBE] | 0.198% | 5.807% | 1.706% | 4.29% | 5.441% | 2.139% | 8.692% | 3.95% | – | – | – | – | – | – | – | –
C=CC1=C(C(=O)O)N2C(=O)[C@@H](NC(=O)/C(=N\O)c3csc(N)n3)[C@H]2SC1 [SJ000286082-3] | 0.05121% | 11.38% | 3.32% | 3.525% | 3.234% | 2.212% | 4.774% | 1.925% | – | – | – | – | – | – | – | –
CCCCC(=O)N(Cc1ccc(-c2ccccc2-c2nnn[nH]2)cc1)[C@H](C(=O)O)C(C)C [SJ000286083-3] | – | – | – | – | – | – | – | – | -0.8771% | -0.1457% | 1.896% | -3.413% | 1.517% | 1.672% | 2.31% | -2.006%
CCCCC(=O)N(Cc1ccc(-c2ccccc2-c2nnn[nH]2)cc1)[C@H](C(=O)O)C(C)C [SJ000286083-4] | – | – | – | – | – | – | – | – | -5.399% | -2.877% | -1.191% | -1.607% | -0.1303% | -0.2697% | 3.369% | -2.819%
Cc1cccc(Nc2ccncc2S(=O)(=O)NC(=O)NC(C)C)c1 [SJ000286085-4, TORSEMIDE] | – | – | – | – | – | – | – | – | 3.27% | 0.9883% | -0.4672% | 11.12% | 0.4443% | -0.2644% | 121.5% | 4.671%
Cc1cccc(Nc2ccncc2S(=O)(=O)NC(=O)NC(C)C)c1 [SJ000286085-5, TORSEMIDE] | – | – | – | – | – | – | – | – | 0.9899% | -1.664% | -2.109% | 1.697% | -1.512% | 1.771% | 0.4254% | -7.265%
C[C@]12CCC(=O)C=C1C=C[C@@H]1[C@@H]2CC[C@@]2(C)[C@H]1CC[C@@]21CCC(=O)O1 [SJ000286091-3, CANRENONE] | 4.82% | 5.53% | 0.603% | 2.621% | 3.254% | 3.227% | 2.724% | 0.4745% | – | – | – | – | – | – | – | –
CCOC(=O)[C@H](CCc1ccccc1)N[C@@H](C)C(=O)N1[C@H](C(=O)O)C[C@H]2CCCC[C@@H]21 [SJ000286095-3, TRANDOLAPRIL] | 3.149% | 4.361% | -0.04443% | 4.953% | 1.075% | -0.1668% | 2.18% | -2.955% | – | – | – | – | – | – | – | –
CN1CCN(C2=Nc3ccccc3Oc3ccc(Cl)cc32)CC1 [SJ000286106-7, LOXAPINE SUCCINATE] | 2.165% | 7.459% | 1.134% | 4.618% | 3.14% | 1.422% | 14.63% | -0.3035% | – | – | – | – | – | – | – | –
NS(=O)(=O)c1cc2c(cc1Cl)NC(C(Cl)Cl)NS2(=O)=O (stereo not shown) [SJ000286143-4, TRICHLORMETHIAZIDE] | -3.026% | -1.049% | 0.3933% | -1.321% | -14.58% | -0.7669% | 5.642% | 3.577% | – | – | – | – | – | – | – | –
CCCc1cc(=O)[nH]c(=S)[nH]1 [SJ000286145-4, PROPYLTHIOURACIL] | 0.3408% | -0.9508% | -1.815% | 2.631% | -0.4734% | 1.023% | 1.792% | -4.099% | – | – | – | – | – | – | – | –
